The subject of one assay is GP2D (KRAS G12D) cells. The experiment in a line: 2D cell viability assay (CellTiter-Glo). The format is cell-based. The following applies: 4 days. In a few lines:
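Viability was read by CellTiter-Glo after 4 days at 37 °C of 2D culture of KRAS G12D GP2D cells (1000/well, RPMI, 10% FBS) on pre-spotted threefold compound dilutions. EC50 was fitted with a sigmoidal dose-response model as the point of half-maximal luminescence loss.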
(In ATP-based viability assays light output follows the ATP content of the culture.)

The test system of a further assay is AsPC-1 (KRAS G12D) cells. The experiment in a line: 3D cell viability assay (spheroids, CellTiter-Glo 3D). It is filed as cell-based. The following applies: AsPC-1 cells, 3D spheroids, 4 days. The method, boiled down:
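AsPC-1 cells (1000/well) in DMEM with 10% FBS formed spheroids over 3 days at 37 °C in ultra-low attachment plates, then were treated with 1:3 serial dilutions for 4 days. Viability read by CellTiter-Glo 3D luminescence; EC50 as concentration giving 50% signal decrease, sigmoidal fit.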

The target in the next assay is GDP-loaded KRAS G12D (Homo sapiens (Human), UniProt P01116, G12D). The experiment in a line: KRAS G12D (GDP) biochemical assay (TR-FRET probe displacement). The format is binding. Particulars: 2 hours. In a few lines: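 TR-FRET probe displacement: 1:3 DMSO serial dilutions pre-incubated 30 min with GDP-bound KRAS G12D, followed by Eu-streptavidin/probe for 2 h at room temperature (Hepes pH 7.4, NaCl, MgCl2, Tween-20 buffer). IC50 defined as concentration halving TR-FRET ratio, from sigmoidal dose-response fit.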
(Time-resolved FRET reads energy transfer from a long-lived donor to a nearby acceptor.)

Structures are written as SMILES. Where only a bound is given, the exact number is not on record here.

Chain of GDP-loaded KRAS G12D (P01116-2 other isoform, or with tags, fused parts or gaps G12D): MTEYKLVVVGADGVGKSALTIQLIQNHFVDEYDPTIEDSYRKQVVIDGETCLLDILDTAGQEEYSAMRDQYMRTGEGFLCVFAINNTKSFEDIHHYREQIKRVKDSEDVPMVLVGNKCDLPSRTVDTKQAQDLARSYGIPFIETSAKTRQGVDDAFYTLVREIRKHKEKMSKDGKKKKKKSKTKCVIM

For `C#Cc1c(F)ccc2cc(O)cc(-c3nc4c5c(nc(OC[C@@]67CCCN6C[C@H](F)C7)nc5c3F)N3C[C@H]5CC[C@H](N5)[C@H]3CC4(F)F)c12` [Example 97, 5-ethynyl-6-fluoro-4-((5aR,6S,9R)-1,4,4-trifluoro-12-(((2R,7aS)-2-fluorotetrahydro-1H-pyrrolizin-7a(5H)-yl)methoxy)-4,5,5a,6,7,8,9,10-octahydro-3,10a,11,13,14-pentaaza-6,9-methanonaphtho[1,8-ab]heptalen-2-yl)naphthalen-2-ol], the EC50 (in general, the concentration at which the effect is half-maximal) is 7.7 nM in the assay on GP2D (KRAS G12D) cells (GP2d, 96 h) and 55 nM in the assay on AsPC-1 (KRAS G12D) cells (Homo sapiens, ASPC1, 96 h). The IC50 – broadly, the concentration at which inhibition is half-maximal – on GDP-loaded KRAS G12D came out at 0.2 nM.
The like results for `Oc1cc(-c2nc3c4c(nc(OC[C@@]56CCCN5C[C@@]5(CC5(F)F)C6)nc4c2F)N2C[C@H]4CC[C@H](N4)[C@H]2CC3)c2c(OC(F)(F)F)c(F)ccc2c1` [Example 99, 4-((5aR,6S,9R)-12-(((1S,7a'S)-2,2-difluorodihydro-1′H,3′H-spiro[cyclopropane-1,2′-pyrrolizin]-7a′(5′H)-yl)methoxy)-1-fluoro-4,5,5a,6,7,8,9,10-octahydro-3,10a,11,13,14-pentaaza[6,9]methanonaphtho[1,8-ab]heptalen-2-yl)-6-fluoro-5-(trifluoromethoxy)naphthalen-2-ol] were, in that order, 7.4 nM, 110 nM and 0.6 nM.
In the case of `Oc1cc(-c2nc3c4c(nc(OCC5(CN6CCC(OC(F)(F)F)CC6)CC5)nc4c2F)N2C[C@H]4CC[C@H](N4)[C@H]2CC3)c2c(OC(F)(F)F)c(F)ccc2c1` [Example 102, 6-fluoro-4-((5aR,6S,9R)-1-fluoro-12-((1-((4-(trifluoromethoxy)piperidin-1-yl)methyl)cyclopropyl)methoxy)-4,5,5a,6,7,8,9,10-octahydro-3,10a,11,13,14-pentaaza-6,9-methanonaphtho[1,8-ab]heptalen-2-yl)-5-(trifluoromethoxy)naphthalen-2-ol], the EC50 in the assay with GP2D (KRAS G12D) cells (GP2d, 96 h) was found to be 39.5 nM; in the assay with AsPC-1 (KRAS G12D) cells (Homo sapiens, ASPC1, 96 h) it was 680 nM. The same compound had an IC50 at GDP-loaded KRAS G12D of 3.3 nM.
On to `C#Cc1c(F)ccc2cc(O)cc(-c3nc4c5c(nc(OC[C@@]67CCCN6[C@H](COc6cccc(S(F)(F)(F)(F)F)c6)CC7)nc5c3F)N3C[C@H]5CC[C@H](N5)[C@H]3CC4)c12` [Example 104, 5-ethynyl-6-fluoro-4-((5aR,6S,9R)-1-fluoro-12-(((3S,7aS)-3-((3-(pentafluoro-λ6-sulfaneyl)phenoxy)methyl)tetrahydro-1H-pyrrolizin-7a(5H)-yl)methoxy)-4,5,5a,6,7,8,9,10-octahydro-3,10a,11,13,14-pentaaza-6,9-methanonaphtho[1,8-ab]heptalen-2-yl)naphthalen-2-ol], for which the EC50 in the assay with GP2D (KRAS G12D) cells (GP2d, 96 h) was found to be 8.7 nM; with AsPC-1 (KRAS G12D) cells (Homo sapiens, ASPC1, 96 h), 53 nM. In addition, the IC50 at GDP-loaded KRAS G12D came out at 0.8 nM.
On to `C#Cc1c(F)ccc2cc(O)cc(-c3nc4c5c(nc(OCC6(CN7CCC(OC(F)(F)F)CC7)CC6)nc5c3F)N3C[C@H]5CC[C@H](N5)[C@H]3CC4)c12` [Example 106, 5-ethynyl-6-fluoro-4-((5aR,6S,9R)-1-fluoro-12-((1-((4-(trifluoromethoxy)piperidin-1-yl)methyl)cyclopropyl)methoxy)-4,5,5a,6,7,8,9,10-octahydro-3,10a,11,13,14-pentaaza-6,9-methanonaphtho[1,8-ab]heptalen-2-yl)naphthalen-2-ol], for which the EC50 with GP2D (KRAS G12D) cells (GP2d, 96 h) turned out to be 1.9 nM; in the assay on AsPC-1 (KRAS G12D) cells (Homo sapiens, ASPC1, 96 h) it was 8.2 nM. At GDP-loaded KRAS G12D, this compound had an IC50 of 0.2 nM.
In the case of `C#Cc1c(F)ccc2cc(O)cc(-c3nc4c5c(nc(OC[C@@]67CCCN6[C@H](COC(C)(C(F)(F)F)C(F)(F)F)CC7)nc5c3F)N3C[C@H]5CC[C@H](N5)[C@H]3CC4)c12` [Example 109], the EC50 in the assay on GP2D (KRAS G12D) cells (GP2d, 96 h) is 1.2 nM; with AsPC-1 (KRAS G12D) cells (Homo sapiens, ASPC1, 96 h), 0.8 nM. The IC50 on GDP-loaded KRAS G12D was found to be 0.1 nM.
With `C#Cc1c(F)ccc2cc(O)cc(-c3nc4c5c(nc(OC[C@@]67CCCN6[C@H](COC(C6CC6)C(F)(F)F)CC7)nc5c3F)N3C[C@H]5CC[C@H](N5)[C@H]3CC4)c12` (stereo partly drawn) [Example 110, 4-((5aR,6S,9R)-12-(((3S,7aS)-3-((1-cyclopropyl-2,2,2-trifluoroethoxy)methyl)tetrahydro-1H-pyrrolizin-7a(5H)-yl)methoxy)-1-fluoro-4,5,5a,6,7,8,9,10-octahydro-3,10a,11,13,14-pentaaza-6,9-methanonaphtho[1,8-ab]heptalen-2-yl)-5-ethynyl-6-fluoronaphthalen-2-ol], the EC50 was 36.1 nM in the assay with GP2D (KRAS G12D) cells and 51 nM with AsPC-1 (KRAS G12D) cells. The same compound registered an IC50 on GDP-loaded KRAS G12D of 0.3 nM.
Regarding `C#Cc1c(F)ccc2cccc(-c3nc4c5c(nc(OC[C@@]67CCCN6[C@H](COC(C6CC6)C(F)(F)F)CC7)nc5c3F)N3C[C@H]5CC[C@H](N5)[C@H]3CC4)c12` (stereo partly drawn) [Example 111, (5aR,6S,9R)-12-(((3S,7aS)-3-((1-cyclopropyl-2,2,2-trifluoroethoxy)methyl)tetrahydro-1H-pyrrolizin-7a(5H)-yl)methoxy)-2-(8-ethynyl-7-fluoronaphthalen-1-yl)-1-fluoro-4,5,5a,6,7,8,9,10-octahydro-3,10a,11,13,14-pentaaza-6,9-methanonaphtho[1,8-ab]heptalene], the EC50 with GP2D (KRAS G12D) cells (GP2d, 96 h) came out at 69.9 nM; in the assay on AsPC-1 (KRAS G12D) cells (Homo sapiens, ASPC1, 96 h), 360 nM. The IC50 on GDP-loaded KRAS G12D was determined as 0.7 nM.
Turning to `C#Cc1c(F)ccc2cccc(-c3nc4c5c(nc(OC[C@@]67CCCN6[C@H](COC(C)(C(F)(F)F)C(F)(F)F)CC7)nc5c3F)N3C[C@H]5CC[C@H](N5)[C@H]3CC4)c12` [Example 112, (5aR,6S,9R)-2-(8-ethynyl-7-fluoronaphthalen-1-yl)-1-fluoro-12-(((3S,7aS)-3-(((1,1,1,3,3,3-hexafluoro-2-methylpropan-2-yl)oxy)methyl)tetrahydro-1H-pyrrolizin-7a(5H)-yl)methoxy)-4,5,5a,6,7,8,9,10-octahydro-3,10a,11,13,14-pentaaza-6,9-methanonaphtho[1,8-ab]heptalene], the EC50 in the assay with GP2D (KRAS G12D) cells (GP2d, 96 h) amounted to 41 nM; with AsPC-1 (KRAS G12D) cells (Homo sapiens, ASPC1, 96 h), 270 nM. The same compound registered an IC50 on GDP-loaded KRAS G12D of 0.3 nM.
For the compound `C#Cc1c(F)ccc2cccc(-c3nc4c5c(nc(OC[C@@]67C[C@@H](F)CN6CC6(CC6)C7)nc5c3F)N3C[C@H]5CC[C@H](N5)[C@H]3CC4)c12` [Example 113, (5aR,6S,9R)-2-(8-ethynyl-7-fluoronaphthalen-1-yl)-1-fluoro-12-(((6′R,7a′R)-6′-fluorodihydro-1′H,3′H-spiro[cyclopropane-1,2′-pyrrolizin]-7a′(5′H)-yl)methoxy)-4,5,5a,6,7,8,9,10-octahydro-3,10a,11,13,14-pentaaza-6,9-methanonaphtho[1,8-ab]heptalene], the EC50 with GP2D (KRAS G12D) cells (GP2d, 96 h) is 7.3 nM; with AsPC-1 (KRAS G12D) cells (Homo sapiens, ASPC1, 96 h), 57 nM. The IC50 on GDP-loaded KRAS G12D turned out to be 0.2 nM.
For `C#Cc1c(F)ccc2cccc(-c3nc4c5c(nc(OC[C@@]67CCCN6[C@H](COC(C)(C(F)(F)F)C(F)(F)F)CC7)nc5c3F)N3C[C@H]5CC[C@H](N5)[C@H]3CCC4)c12` [Example 115, (6aR,7S,10R)-2-(8-ethynyl-7-fluoronaphthalen-1-yl)-1-fluoro-13-(((3S,7aS)-3-(((1,1,1,3,3,3-hexafluoro-2-methylpropan-2-yl)oxy)methyl)tetrahydro-1H-pyrrolizin-7a(5H)-yl)methoxy)-5,6,6a,7,8,9,10,11-octahydro-4H-3,11a,12,14,15-pentaaza-7,10-methanocyclohepta[4,5]cycloocta[1,2,3-de]naphthalene], in that order: 11.5 nM, 100 nM and 0.1 nM.
Consider `C#Cc1c(F)ccc2cccc(-c3nc4c5c(nc(OC[C@@]67CCCN6C[C@H](F)C7)nc5c3F)N3C[C@H]5CC[C@H](N5)[C@H]3[C@H](C)O4)c12` [Example 116, (5S,5aS,6S,9R)-2-(8-ethynyl-7-fluoronaphthalen-1-yl)-1-fluoro-12-(((2R,7aS)-2-fluorotetrahydro-1H-pyrrolizin-7a(5H)-yl)methoxy)-5-methyl-5a,6,7,8,9,10-hexahydro-5H-4-oxa-3,10a,11,13,14-pentaaza-6,9-methanonaphtho[1,8-ab]heptalene], for which the EC50 in the assay with GP2D (KRAS G12D) cells (GP2d, 96 h) was 6 nM; with AsPC-1 (KRAS G12D) cells (Homo sapiens, ASPC1, 96 h), 25 nM. Further, the IC50 at GDP-loaded KRAS G12D is 0.6 nM.
For `C#Cc1c(F)ccc2cccc(-c3nc4c5c(nc(OC[C@@]67CCCN6[C@H](COC(C)(C)C)CC7)nc5c3F)N3C[C@H]5CC[C@H](N5)[C@H]3CC4)c12` [Example 119, (5aR,6S,9R)-12-(((3S,7aS)-3-(tert-butoxymethyl)tetrahydro-1H-pyrrolizin-7a(5H)-yl)methoxy)-2-(8-ethynyl-7-fluoronaphthalen-1-yl)-1-fluoro-4,5,5a,6,7,8,9,10-octahydro-3,10a,11,13,14-pentaaza-6,9-methanonaphtho[1,8-ab]heptalene], in that order: 125 nM, 390 nM and 2.4 nM.
As for `C#Cc1c(F)ccc2cc(O)cc(-c3nc4c5c(nc(OC[C@@]67CCCN6C[C@@]6(CC6(F)F)C7)nc5c3F)N3C[C@H]5CC[C@H](N5)[C@H]3CC4)c12` [Example 122, 4-((5aR,6S,9R)-12-(((1S,7a'S)-2,2-difluorodihydro-1′H,3′H-spiro[cyclopropane-1,2′-pyrrolizin]-7a′(5′H)-yl)methoxy)-1-fluoro-4,5,5a,6,7,8,9,10-octahydro-3,10a,11,13,14-pentaaza[6,9]methanonaphtho[1,8-ab]heptalen-2-yl)-5-ethynyl-6-fluoronaphthalen-2-ol], the EC50 in the assay with GP2D (KRAS G12D) cells (GP2d, 96 h) was determined as 0.1 nM; with AsPC-1 (KRAS G12D) cells (Homo sapiens, ASPC1, 96 h), 2.9 nM. Further, the IC50 on GDP-loaded KRAS G12D was under 0.1 nM.

For the origin of these results see US20230339981A1, “KRAS G12D MODULATING COMPOUNDS” (priority 2022, published 2023).
